Data on eleven molecules can be found in ChEMBL document CHEMBL1201862, “PubChem BioAssay data set” (2004).

Among the test systems are 786-0; CCRF-CEM; HT-29; Hs-578T; K562; KM12; MDA-MB-231; MDA-N; NCI-H23; NCI-H460; NCI/ADR-RES; OVCAR-5; OVCAR-8; RXF 393; SF-539; SK-MEL-28; SN12C; TK-10; COLO 205; SK-MEL-2.
What all share (experiment): NCI anticancer screen, dose series, 48 h

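Results reflect a 48-hour exposure of cells in 96-well plates to compound at five concentrations. GI50 marks 50% less growth.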 Calls of active or inactive are those of the source. Rule as the data show it: active = GI50 up to about 1.1 µM and inactive = higher.

In the case of `O=C(c1ccc([N+](=O)[O-])cc1)N1CCCC1`, the GI50 in the assay with 786-0, with CCRF-CEM, in the assay with HT-29, with Hs-578T, in the assay with K562 and in the assay with KM12 was > 100 µM (inactive) in each case. In addition, the GI50 in the assay on MDA-MB-231, in the assay on MDA-N, in the assay on NCI-H23, in the assay on NCI-H460, with NCI/ADR-RES and with OVCAR-5 was > 100 µM (inactive) in each case. The GI50 is > 100 µM (inactive) in the assay on OVCAR-8; > 100 µM (inactive) in the assay on RXF 393; > 100 µM (inactive) in the assay on SF-539; > 100 µM (inactive) in the assay with SK-MEL-28; 17.7 µM (inactive) in the assay on SN12C; 86.1 µM (inactive) in the assay with TK-10.
As for `COc1ccccc1C1SCC(=O)N1c1ccc(-c2ccc(-n3c(-c4ccccc4)nc4ccccc4c3=O)cc2)cc1` (configuration not stated), the GI50 with 786-0, in the assay on CCRF-CEM, in the assay on COLO 205, in the assay on HT-29, with Hs-578T and in the assay with K562 was > 100 µM (inactive) each time. Further, the GI50 in the assay on KM12, in the assay with MDA-MB-231, in the assay with MDA-N, in the assay with NCI-H23, in the assay with NCI-H460 and with NCI/ADR-RES was > 100 µM (inactive) each time. The GI50 was > 100 µM (inactive) with OVCAR-5; > 100 µM (inactive) with OVCAR-8; 31 µM (inactive) with SF-539; > 100 µM (inactive) in the assay with SK-MEL-28; > 100 µM (inactive) in the assay on SK-MEL-2; > 100 µM (inactive) in the assay with SN12C. In addition, the GI50 with TK-10 is > 100 µM (inactive).
Turning to `O=CN1CCN(CC(O)CN2CCCCC2)CC1` (configuration not stated), the GI50 in the assay on 786-0, in the assay with CCRF-CEM, in the assay on COLO 205, in the assay on HT-29, in the assay with Hs-578T and in the assay on K562 was > 100 µM (inactive) each time. For the same molecule, the GI50 with KM12, in the assay on MDA-MB-231, with MDA-N, in the assay with NCI-H23, with NCI/ADR-RES and in the assay on OVCAR-5 was > 100 µM (inactive) each time. Further, the GI50 in the assay on OVCAR-8, in the assay with RXF 393, in the assay with SK-MEL-28, with SK-MEL-2, in the assay with SN12C and in the assay on TK-10 was > 100 µM (inactive) each time.
For `CCCCc1ccc(C#CC#Cc2ccc(CCCC)s2)s1`, the GI50 is > 100 µM (inactive) in the assay on 786-0; 4.39 µM (inactive) with CCRF-CEM; > 100 µM (inactive) in the assay on COLO 205; > 100 µM (inactive) with HT-29; > 100 µM (inactive) with Hs-578T; > 100 µM (inactive) with KM12. For the same molecule, the GI50 in the assay with MDA-MB-231, with MDA-N, in the assay with NCI-H23, in the assay on NCI-H460, in the assay on NCI/ADR-RES and with OVCAR-5 was > 100 µM (inactive) in each case. In addition, the GI50 in the assay on OVCAR-8, in the assay on RXF 393, in the assay with SF-539, with SN12C and with TK-10 was > 100 µM (inactive) in each case.
As for `COC1CC(C)(NC(C)=O)C2OC(c3ccccc3)OCC2O1` (configuration not stated), the GI50 with 786-0, with CCRF-CEM, with COLO 205, in the assay on HT-29, with Hs-578T and with K562 was > 100 µM (inactive) each time. The GI50 in the assay with KM12, in the assay with MDA-MB-231, with MDA-N, in the assay on NCI-H23, in the assay with NCI-H460 and in the assay on NCI/ADR-RES was > 100 µM (inactive) each time. Also, the GI50 in the assay with OVCAR-5, in the assay with OVCAR-8, in the assay with RXF 393, in the assay with SF-539, with SK-MEL-28 and in the assay with SN12C was > 100 µM (inactive) in each case. For the same molecule, the GI50 in the assay on TK-10 was > 100 µM (inactive).
Consider `Cc1n[nH]c(=O)n1N1C(=O)c2ccccc2C1=O`, for which the GI50 in the assay on 786-0, with CCRF-CEM, with COLO 205, in the assay on HT-29, in the assay on Hs-578T and with K562 was > 100 µM (inactive) in each case. For the same molecule, the GI50 with KM12, in the assay on MDA-MB-231, with MDA-N, in the assay with NCI-H23, in the assay with NCI-H460 and in the assay on NCI/ADR-RES was > 100 µM (inactive) in each case. The GI50 in the assay on OVCAR-5, in the assay on OVCAR-8, with SF-539, in the assay with SK-MEL-28, in the assay with SK-MEL-2 and in the assay on SN12C was > 100 µM (inactive) each time. The GI50 with TK-10 is > 100 µM (inactive).
As for `CC1(C)CNC(c2ccc3c(c2)Cc2cc(C4=NC(C)(C)CN4)ccc2-3)=N1`, the GI50 was 49.8 µM (inactive) with 786-0; 48.2 µM (inactive) in the assay on CCRF-CEM; 28.2 µM (inactive) in the assay on COLO 205; 32.1 µM (inactive) in the assay with HT-29; 64.7 µM (inactive) with Hs-578T; 24.4 µM (inactive) in the assay with K562. The GI50 is 28.1 µM (inactive) with KM12; 39.1 µM (inactive) in the assay with MDA-MB-231; 39.8 µM (inactive) in the assay with MDA-N; 35.1 µM (inactive) in the assay with NCI-H23; 30.8 µM (inactive) with NCI-H460; > 100 µM (inactive) with NCI/ADR-RES. The GI50 was > 100 µM (inactive) with OVCAR-5; 37 µM (inactive) in the assay on OVCAR-8; > 100 µM (inactive) in the assay on RXF 393; 38.7 µM (inactive) in the assay on SK-MEL-28; 20.1 µM (inactive) with SK-MEL-2; 36.6 µM (inactive) in the assay with SN12C. The GI50 with TK-10 is > 100 µM (inactive).
In the case of `COc1ccc(/N=N/C(=N/NC(=O)c2ccc(C)cc2)c2ccc(N(CCC#N)CCC#N)cc2OC)cc1`, the GI50 in the assay on 786-0, in the assay on COLO 205, with HT-29, in the assay on Hs-578T, with K562 and in the assay with KM12 was > 100 µM (inactive) in each case. Besides, the GI50 with MDA-MB-231, in the assay with MDA-N, in the assay on NCI-H23, in the assay on NCI-H460, in the assay on NCI/ADR-RES and with OVCAR-5 was > 100 µM (inactive) in each case. In addition, the GI50 in the assay with OVCAR-8, in the assay on RXF 393, in the assay on SK-MEL-28, with SK-MEL-2, with SN12C and in the assay on TK-10 was > 100 µM (inactive) throughout.
For the molecule `CC1(C)COP(=S)(c2ccccn2)O[C@@H]1c1ccccc1` (some centres not stated), the GI50 with 786-0 is > 100 µM (inactive); with CCRF-CEM, 42.1 µM (inactive); in the assay with COLO 205, 38.3 µM (inactive); in the assay with HT-29, 81.8 µM (inactive); with Hs-578T it was > 100 µM (inactive); with K562 it was 41.6 µM (inactive). Moreover, the GI50 in the assay with KM12 was > 100 µM (inactive); in the assay on MDA-MB-231, > 100 µM (inactive); with MDA-N it was 74.6 µM (inactive); in the assay with NCI-H23 it was 69.5 µM (inactive); in the assay with NCI-H460 it was > 100 µM (inactive); in the assay with NCI/ADR-RES it was 66.1 µM (inactive). Further, the GI50 with OVCAR-5 was > 100 µM (inactive); in the assay on OVCAR-8, > 100 µM (inactive); in the assay with RXF 393 it was 62.2 µM (inactive); with SK-MEL-28, > 100 µM (inactive); in the assay on SN12C it was > 100 µM (inactive); with TK-10 it was > 100 µM (inactive).
As for `O=[N+]([O-])c1cc(/N=N/c2c(O)ccc3cc(S(=O)(=O)O)ccc23)c(O)c([N+](=O)[O-])c1`, the GI50 in the assay on 786-0 is > 100 µM (inactive); in the assay with CCRF-CEM it was 18.9 µM (inactive); in the assay on COLO 205 it was > 100 µM (inactive); with HT-29, 50.2 µM (inactive); with Hs-578T it was > 100 µM (inactive); with K562 it was > 100 µM (inactive). Also, the GI50 was 31.9 µM (inactive) in the assay with KM12; > 100 µM (inactive) in the assay with MDA-MB-231; > 100 µM (inactive) with MDA-N; > 100 µM (inactive) with NCI-H23; > 100 µM (inactive) in the assay with NCI/ADR-RES; > 100 µM (inactive) in the assay with OVCAR-5. Moreover, the GI50 is 35.7 µM (inactive) in the assay on OVCAR-8; > 100 µM (inactive) in the assay on RXF 393; > 100 µM (inactive) in the assay with SK-MEL-28; > 100 µM (inactive) in the assay on SK-MEL-2; > 100 µM (inactive) in the assay on SN12C; > 100 µM (inactive) in the assay on TK-10.
With `O/N=N\c1nc(-c2ccccn2)nc2ccccc12`, the GI50 in the assay with 786-0 is 3.68 µM (inactive); in the assay with CCRF-CEM, 0.441 µM (active); with COLO 205, 6.15 µM (inactive); with HT-29 it was 0.611 µM (active); in the assay with Hs-578T, > 100 µM (inactive); with K562, 2.23 µM (inactive). Besides, the GI50 was 20.6 µM (inactive) in the assay with KM12; 13.3 µM (inactive) in the assay with MDA-MB-231; 19.6 µM (inactive) in the assay on MDA-N; 35.2 µM (inactive) in the assay with NCI-H23; 2.49 µM (inactive) with NCI-H460; 7.78 µM (inactive) in the assay with NCI/ADR-RES. Moreover, the GI50 in the assay with OVCAR-5 is 27.1 µM (inactive); in the assay on OVCAR-8, 12.4 µM (inactive); in the assay with SF-539 it was 17.1 µM (inactive); with SK-MEL-28, 16 µM (inactive); with SK-MEL-2, 4.68 µM (inactive); in the assay on SN12C, 23 µM (inactive). In addition, the GI50 in the assay on TK-10 is 17.4 µM (inactive).
